Experimental data taken from patent publication US4859668A, “Method of inhibiting the growth of melanin-pigmented cells” (North Carolina State University, priority 1988, dated 1989).
In brackets after ≈: the same amount, converted by molar mass. Where two headings read alike, the source gives them in different places.

Legend:
NP [1] = experiment: cells; details: Mus musculus, 1.5 h, read-out: Effect on Growth Rate (inhibition), NP
Experimental: (§4) These cell cultures include low passage HFH (HFH-LP), a pigmented line derived from the B-16 mouse melanoma, and NP, an amelanotic clone of HFH-LP. […] These cells were maintained as monolayers in Corning plastic flasks in Minimum Essential Medium (Eagle) with Earle's salts supplemented with 10% fetal bovine serum, 100 units of penicillin, 100 mg of streptomycin and 5 mg of amphotericin B per ml in 5% CO2 humidified air at 37° C.
(§5) Prior to dose-response studies, single cell suspensions were prepared in medium following trypsinization and inoculated into Falcon Multiwell plates (2 cm^2 wells) at 3.5×10^4 cells per 0.5 ml of medium. Cultures were maintained for 24 hours before exposure.
(§6) This stock solution was used to prepare test concentrations of the drug in culture medium. […] Cells were exposed to each of these concentrations by adding 0.5 ml of each of the solutions to triplicate test wells and incubating the cells under exposure at 37° C. for 1 hour. […] Cells were harvested after 48 hours and counted with a hemacytometer.

HFH = experiment: cells; details: Homo sapiens, read-out: Percent Cell Detachment
Experimental: (§1) HFH and SH heavily pigmented cells, S91 lightly pigmented cells, and BHK nonpigmented cells were exposed to 13.8 mM morpholine for time periods ranging from 1 hour to 56 hours. The procedure was otherwise the same as described in Example 1 above. Cell death is indicated by cell detachment.

S91 = experiment: cells; details: Mus musculus, read-out: Percent Cell Detachment
Experimental: as §1

SH = experiment: cells; details: read-out: Percent Cell Detachment
Experimental: as §1

BHK [2] = experiment: cells; details: Mesocricetus auratus, read-out: Percent Cell Detachment
Experimental: as §1

HFH-LP [3] = experiment: Effect of Cyclic Amines on Survival of Pigmented Melanoma (Table II), HFH-LP; details: Mus musculus, 24 h, read-out: percentage dead, HFH-LP
Experimental: (§7) These cells were maintained as monolayers in Corning plastic flasks in Minimum Essential Medium (Eagle) with Earle's salts supplemented with 10% fetal bovine serum, 100 units of penicillin, 100 mg of streptomycin and 5 mg of amphotericin B per ml in 5% CO2 humidified air at 37° C.
as §5, §6

HFH-LP [4] = experiment: cells; details: Mus musculus, 48 h, read-out: Growth inhibition, Morph. Alone vs. control
From the text: (§8) These cell cultures include low passage HFH (HFH-LP), a pigmented line derived from the B-16 mouse melanoma, and NP, an amelanotic clone of HFH-LP. High passage HFH (HFH-HP) was derived from HFH-LP after 30 passages in vitro. […] These cell cultures further include Cloudman S91 mouse melanoma, RPMI 1846 (a Syrian hamster melanoma), baby hamster kidney (BHK) and Chinese hamster ovary (CHO). These cells were maintained as monolayers in Corning plastic flasks in Minimum Essential Medium (Eagle) with Earle's salts supplemented with 10% fetal bovine serum, 100 units of penicillin, 100 mg of streptomycin and 5 mg of amphotericin B per ml in 5% CO2 humidified air at 37° C.
(§9) Single cell suspensions were prepared as described above. Twenty-four hours after seeding, the cells were exposed to either (a) culture medium alone, or (b) culture medium containing 0.5 mM theophylline.
(§10) The values given are the mean from 6 replicates.

NP [5] = experiment: cells; details: Mus musculus, 48 h, read-out: Growth inhibition, Morph. Alone vs. control
From the text: as §8, §9, §10

L929 = experiment: cells; details: Mus musculus, L929, 48 h, read-out: Growth inhibition, Morph. Alone vs. control
RPMI-1641 [6] = experiment: cells; details: Mesocricetus auratus, 48 h, read-out: Growth inhibition, Morph. Alone vs. control
From the text: as §8, §9, §10

[7] = tested on: unpigmented cell lines NP, BHK and CHO
Experimental: (§2) The Figure illustrates the effect of morpholine on the growth rate of HFH-LP (*), NP (0), BHK (+) and CHO (#) 48 hours after treatment. Values represent the mean ± S.E. for 3 to 6 determinations.

[8] = tested on: Chinese hamster ovary (CHO); experiment: cells; details: Cricetulus griseus, 48 h, read-out: ID50 (growth)
Experimental: as §2

[9] = tested on: NP (amelanotic clone of HFH-LP); experiment: cells; details: Mus musculus, 48 h, read-out: ID50 (growth)
Experimental: as §2

[10] = tested on: baby hamster kidney (BHK); experiment: cells; details: Mesocricetus auratus, 48 h, read-out: ID50 (growth)
Experimental: as §2

[11] = tested on: HFH-LP (pigmented line derived from the B-16 mouse melanoma); experiment: cells
Experimental: as §2

S91 melanoma = experiment: Effects of Various Cyclic Amines on Growth of Pigmented Melanoma Cells (Table III), S91; format: cell-based, mouse; details: Mus musculus, read-out: Percent Inhibition, S91 melanoma
Experimental: (§3) Pigmented S91 melanoma and unpigmented L929 fibroblast cells were treated with various cyclic amines at a concentration of 13.8 mM as described in Example 1 above.

in vitro = details: mouse, l929 cells
Experimental: as §7, §5, §6

RPMI-1641 [12] = details: RPMI 1641, morpholine alone
From the text: as §8, §9, §10

HFH-LP [13] = experiment: Effect of Cyclic Amines on Growth Rate of Pigmented Melanoma (Table I), HFH-LP; format: cell-based, mouse; details: for inhibition at 13800 µM: Mus musculus, read-out: Effect on Growth Rate (inhibition), HFH-LP
Experimental: as §4, §5, §6

[14] = tested on: S91 (Cloudman S91 mouse melanoma); experiment: Effect of Cyclic Amines on Survival of Pigmented Melanoma (Table II), S91; details: 24 h, read-out: percentage dead, S91
Experimental: as §7, §5, §6

L929 fibroblast = experiment: Effects of Various Cyclic Amines on Growth of Pigmented Melanoma Cells (Table III), L929; format: cell-based, mouse; details: Mus musculus, read-out: Percent Inhibition, L929 fibroblast
Experimental: as §3

melanin-pigmented cells = experiment: In vitro selective inhibition of melanin-pigmented cells, effective dosage/time regimens; format: cell-based
BHK [15] = experiment: cells; details: Mesocricetus auratus, 48 h, read-out: Growth inhibition, Morph. Alone vs. control
From the text: as §8, §9, §10

[16] = Effect of Cyclic Amines on Survival of Pigmented Melanoma (Table II), L929; details: mouse, l929 cells
Experimental: as §7, §5, §6

From the text for HFH-HP: as §8, §9, §10

Compound `C1COCCN1` [morpholine] has an inhibition at 13800 µM (NP [1]) of 0%, a cytotoxicity at 13800 µM (HFH; 1 h) of 0% and a cytotoxicity at 13800 µM (HFH; 6 h) of 40%. The cytotoxicity at 13800 µM (HFH; 12 h) was 100%, the cytotoxicity at 13800 µM (HFH; 18 h) was 100% and the cytotoxicity at 13800 µM (HFH; 24 h) was 100%. The cytotoxicity at 13800 µM (HFH; 56 h) was 100%, the cytotoxicity at 13800 µM (S91; S91, 1 h) was 0% and the cytotoxicity at 13800 µM (S91; S91, 6 h) was 50%. For the same compound, the cytotoxicity at 13800 µM (S91; S91, 12 h) was 100%, the cytotoxicity at 13800 µM (S91; S91, 18 h) was 100% and the cytotoxicity at 13800 µM (S91; S91, 24 h) was 100%. The cytotoxicity at 13800 µM (S91; S91, 56 h) was 100%, the cytotoxicity at 13800 µM (SH; 1 h) was 0% and the cytotoxicity at 13800 µM (SH; 6 h) was 0%. It also gave a cytotoxicity at 13800 µM (SH; 12 h) of 5%, a cytotoxicity at 13800 µM (SH; 18 h) of 80% and a cytotoxicity at 13800 µM (SH; 24 h) of 80%. The cytotoxicity at 13800 µM (SH; 56 h) was 100%, the cytotoxicity at 13800 µM (BHK [2]; 1 h) was 0% and the cytotoxicity at 13800 µM (BHK [2]; 6 h) was 0%. It also gave a cytotoxicity at 13800 µM (BHK [2]; 12 h) of 0%, a cytotoxicity at 13800 µM (BHK [2]; 18 h) of 0% and a cytotoxicity at 13800 µM (BHK [2]; 24 h) of 20%. It also gave a cytotoxicity at 13800 µM (BHK [2]; 56 h) of 100%, a cytotoxicity at 13800 µM (HFH-LP [3]) of 30 ± 7% and an inhibition at 1200 µg/mL (HFH-LP [4]) of 64%. For the same compound, the inhibition at 1200 µg/mL (NP [5]) was -9%, the inhibition at 1200 µg/mL (L929) was -68% and the inhibition at 1200 µg/mL (RPMI-1641 [6]) was -6%. The “difference between unpigmented cell lines” value ([7]; any of the dosages tested) was “did not differ significantly from one another”, the “inhibition of nonpigmented cell growth” value ([7]; higher dosages, 48 hours after treatment) was 20% and the “effect on nonpigmented cell growth” value ([7]; low dosages, 48 hours after treatment) was “not affected”. For the same compound, the IC50 [8] was greater than 2400 µg/mL, the IC50 [9] was greater than 2400 µg/mL and the IC50 [10] was greater than 2400 µg/mL. The IC50 ([11]; Mus musculus, 48 h, read-out: ID50 (growth)) was 1200 µg/mL (≈ 13.8 mM), the “inhibition of pigmented HFH cell line compared with unpigmented cell lines” value ([11]; at 1200 and 2400 ug/ml) was “inhibited significantly more (P<0.05)” and the “inhibition of pigmented cells” value ([11]; up to, 300-2400 ug/ml, 48 hours after treatment) was “up to 90%”. The inhibition at 13800 µM (S91 melanoma; S91, 1 Hour Exposure to 13.8 mM) was 60%, the cytotoxicity at 24 h, 13800 µM (in vitro) was -101 ± 15% and the “growth rate with morpholine exposure alone” value (RPMI-1641 [12]) was “not inhibited”. For the same compound, the inhibition at 13800 µM (HFH-LP [13]; 13.8 mM for 1.5 hr, mean ± S.E., 6 replicates) was 97 ± 19%, the cytotoxicity at 13800 µM [14] was 55 ± 6% and the inhibition at 13800 µM (L929 fibroblast; L929, 1 Hour Exposure to 13.8 mM) was 0%. The “greater toxicity of morpholine with theophylline pretreatment” value (HFH-HP; growth inhibition increasing from 25% to 54%) was “twofold”, the “growth inhibition with theophylline pretreatment” value (HFH-HP; morpholine with theophylline pretreatment) was 54% and the “in vitro effectiveness of dosage/time regimen” value (melanin-pigmented cells; 2.3 mM for 6 days) was “effective in vitro for inhibiting the growth of melanin-pigmented cells with little or no effect upon unpigmented cells”. The “in vitro effectiveness of dosage/time regimen” value (melanin-pigmented cells; 13.8 mM for 1 hour) was “effective in vitro for inhibiting the growth of melanin-pigmented cells with little or no effect upon unpigmented cells”, the “selective toxicity to melanoma cells in vitro” value (melanin-pigmented cells; 750 ppm (9mM) or 500 ppm (5mM)) was “selectively toxic to melanoma cells in vitro” and the inhibition at 1200 µg/mL (BHK [15]) was 0%.

Work on `C1CCNCC1` [piperidine] yielded an inhibition at 13800 µM (NP [1]) of 0%, a cytotoxicity at 24 h, 13800 µM [16] of -115 ± 14% and a cytotoxicity at 13800 µM (HFH-LP [3]) of 33 ± 2%. The inhibition at 13800 µM (S91 melanoma; S91, 1 h) was 98%, the inhibition at 13800 µM (HFH-LP [13]; 1.5 h) was 42 ± 4% and the “inhibition of pigmented cell line HFH-LP (in words)” value (HFH-LP [13]; not as effective as morpholine at the dosage tested) was “selectively inhibitory to the pigmented cell line HFH-LP, although not as effective as morpholine”. The cytotoxicity at 13800 µM [14] was 44 ± 3%, the inhibition at 13800 µM (L929 fibroblast; L929, 1 h) was 0% and the “in vitro effectiveness of dosage/time regimen” value (melanin-pigmented cells; 13.8 mM for 1 hour) was “effective in vitro for inhibiting the growth of melanin-pigmented cells with little or no effect upon unpigmented cells”.
